Residue numbers refer to the chain shown, from its start. Numbers in names are those of the source.
Key:
[1] = target: T1, binding of CARD and LPS (Homo sapiens, UniProt P49662, M1C); assay: FP competition assay of hit compounds; conditions: compound 50 μM to 0.022 μM, 6.4 μM LPS-Ra, 50 nM tracer, buffer C, 37° C. 1 hour
T1 construct: three types of cysteine-inserted CARD(1-80) variants (Cys-His-CARD, His-Cys-CARD (M1C-CARD), and His-CARD-Cys); His6 (N); made in house; host or cells: E. coli CLEARCOLI BL21(DE3)
T1 sequence (P49662 1-80 M1C): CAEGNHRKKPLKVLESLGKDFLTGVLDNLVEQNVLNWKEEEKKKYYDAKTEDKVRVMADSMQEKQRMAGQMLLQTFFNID
Protocol: In detail, the FP competition assay was performed by mixing 50 nM of tracer, 6.4 μM of LPS-Ra, and 3-fold serially diluted hit compound (50 μM to 0.022862 μM) in buffer C. The mixture was incubated at 37° C. for 1 hour before measurement. FP values were expressed as a function of compound concentrations, and IC50 values were obtained from a sigmoidal curve fit, as analyzed in GRAPHPAD PRISM 8.

[2] = FP binding assay of ALEXA FLUOR 488-CARD and LPS; conditions: for effect of additive on binding of CARD and LPS: buffer C with 0.1 mg/mL BSA, 0.01% NP-40, or 1 mM MC (MgCl2+CaCl2), 37° C. 1 hour
Protocol: Fluorescence polarization (FP) was measured with an APPLISKAN microplate reader (ThermoFisher) using 485 nm excitation and 535 nm emission filters. The FP value was calculated according to the following equation: FP (mP)=1000×(Is−G×Ip)/(Is+G×Ip). In the equation, Is represents a parallel (equivalent) emission intensity, Ip represents a perpendicular emission intensity, and G represents a lattice coefficient 0.877.
FP binding assay was performed by adding 200 μL of a reaction mixture to each well of a black 96-well plate (SPL Life Sciences). The reaction mixture includes 50 nM ALEXA FLUOR 488-CARD (tracer) with increasing concentrations of LPS-Ra (in the range of 0 μM to 12.8 μM, a molecular weight of LPS-Ra is assumed to be 3,835 g/mole, Sigma-Aldrich) in a buffer C or an indicated buffer. The reaction mixture was incubated at 37° C. for 30 minutes to 4 hours before reaction. FP values are expressed as a function of LPS-Ra concentration. FP binding curves of His-Cys-CARD (ALEXA FLUOR 488-CARD) or ALEXA FLUOR 488 alone (dye) with respect to the concentrations of LPS are shown in FIG. 2E.
Apparent equilibrium dissociation constants (Kd^app) were calculated from the nonlinear regression curve fit, as analyzed in GRAPHPAD PRISM 8 from the FP binding curves.
An FP binding curve from FP values measured with buffer C (50 mM Tris-HCl pH 7.0, 150 mM NaCl) supplemented with additives such as 0.1 mg/mL BSA, 0.01% NP-40, or 1 mM MC (MgCl2+CaCl2) is shown in FIG. 3A. An FP binding curve from FP values measured by incubating ALEXA FLOUR 488-CARD serially diluted with buffer C for 0.5 hours to 4 hours is shown in FIG. 3B (grey area: range of 20 nM to 50 nM). An FP binding curve from FP values measured by incubating different concentrations of LPS-Ra in buffer C for 0.5 hours to 4 hours is shown in FIG. 3D. An FP binding curve from FP values measured with buffer C supplemented with different concentrations of DMSO is shown in FIG. 3E. In addition, LPS-Ra concentration-dependent Z′ factor was evaluated in buffer C supplemented with 0% to 10% DMSO. […]

[3] = Tryptophan fluorescence spectrometry of Casp-4 constructs binding to LPS; conditions: for Kd: 1 μM protein, LPS-Ra 0 μM to 50 μM, HBS-E buffer, 37° C. 30 minutes, fluorescence intensity at 334 nm, read-out: apparent equilibrium dissociation constant (Kd^app)
Protocol: Apparent dissociation constants were measured by tryptophan fluorescence spectrometry. […] Apparent dissociation constant values were calculated by analyzing the fluorescence emission spectra.
Fluorescence spectra were obtained with a FluoroMate FS-2 fluorescence spectrophotometer (Sinco) equipped with a quartz cuvette with a 5 mm path length. 1 μM of the recombinant protein was mixed with increasing concentrations of LPS-Ra (in the range of 0 μM to 50 μM) in an HBS-E buffer (10 mM HEPES pH 7.5, 150 mM NaCl, 3 mM EDTA), and incubated at 37° C. for 30 minutes. The sample was excited at 280 nm, and emission spectra at 300 nm to 500 nm were recorded with an excitation/emission slit width of 2.5/5 nm, respectively. The fluorescence intensity of the sample was corrected by subtracting the background intensity of LPS alone. A difference in the fluorescence intensity at 334 nm was expressed as a function of LPS-Ra concentration, and the apparent equilibrium dissociation constant (Kd^app) was calculated from the nonlinear regression curve fit, as analyzed in GRAPHPAD PRISM 8. Graphs showing the emission spectra of the tryptophan residue in full-length C258A-Casp-4, CARD, and ΔCARD-C258A-Casp-4 in LPS-Ra (0 μM to 50 μM) are shown in FIG. 1B.

[4] = Surface plasmon resonance (SPR) of Casp-4 constructs on immobilized LPS; assay type: binding, E. coli; conditions: for Kd: 25° C., NH-LPS O55:B5 on CM5 chip, HBS-E, read-out: dissociation constant
Protocol: In addition, the binding affinity between Casp-4 and LPS was determined by a surface plasmon resonance (SPR) experiment. The SPR experiment was performed at 25° C. using a BIACORE T200 (Cytiva). A filtered and degassed running buffer (HBS-E) was prepared prior to use. Amine-derived LPS O55:B5 (NH-LPS, Sigma-Aldrich) was prepared by a method described in P. T. Wong et al., J Mater Chem B, 2015, 3, 1149-1156, herein incorporated by reference. NH-LPS was immobilized on a CM5 sensor chip (Cytiva) using an amine coupling method (480 RU), and blocked with 1 M ethanolamine (pH 8.5). Purified proteins of the indicated concentration were injected, and the resulting sensorgrams were analyzed using a BIACORE T200 Evaluation software.

Molecule: CN(C)c1ccc(C(=C2C=CC(=[N+](C)C)C=C2)c2ccc(N(C)C)cc2)cc1 [C-5, Crystal violet]
- IC50 (FP signal decrease, concentration-dependent) [1]: μM level

Molecule: CCOc1ccc2nc3cc(N)ccc3c(N)c2c1 [C-8, Ethacridine lactate]
- IC50 (FP signal decrease, concentration-dependent) [1]: μM level

Molecule: bovine serum albumin [BSA]
- effect of additive on binding of CARD and LPS [2]: inhibited

Molecule: CN1CCN(c2nc(C3=C(c4c[nH]c5ccccc45)C(=O)NC3=O)c3ccccc3n2)CC1 [C-15, Sotrastaurin]
- IC50 (FP signal decrease, concentration-dependent) [1]: μM level

Molecule: CN1CCN(c2ccc(C(=O)Nc3n[nH]c4ccc(Cc5cc(F)cc(F)c5)cc34)c(NC3CCOCC3)c2)CC1 [C-19, Entrectinib]
- IC50 (FP signal decrease, concentration-dependent) [1]: μM level

Molecule: CC1=NN(c2ccc(C)c(C)c2)C(=O)/C1=N\Nc1cccc(-c2cccc(C(=O)O)c2)c1O [C-11, Eltrombopag Olamine]
- IC50 (FP signal decrease, concentration-dependent) [1]: μM level

Molecule: O=C1c2c(O)ccc(O)c2C(=O)c2c(NCCNCCO)ccc(NCCNCCO)c21 [C-6, Mitoxantrone]
- IC50 (FP signal decrease, concentration-dependent) [1]: μM level

Molecule: Cc1cc(Nc2ncc(Cl)c(Nc3ccccc3S(=O)(=O)C(C)C)n2)c(OC(C)C)cc1C1CCNCC1 [C-16, Ceritinib]
- IC50 (FP signal decrease, concentration-dependent) [1]: μM level

Molecule: NP-40
- effect of additive on binding of CARD and LPS [2]: inhibited

Molecule: Cn1cc(C2=C(c3cn(C4CCN(Cc5ccccn5)CC4)c4ccccc34)C(=O)NC2=O)c2ccccc21 [C-13, Enzastaurin]
- IC50 (FP signal decrease, concentration-dependent) [1]: μM level

B1: C258A-Casp-4: Catalytically inactive full-length Casp-4 (1-377, C258A modification) (protein, UniProt P49662 1-377, looked up, variant C258A)
chain: MAEGNHRKKPLKVLESLGKDFLTGVLDNLVEQNVLNWKEEEKKKYYDAKTEDKVRVMADSMQEKQRMAGQMLLQTFFNIDQISPNKKAHPNMEAGPPESGESTDALKLCPHEEFLRLCKERAEEIYPIKERNNRTRLALIICNTEFDHLPPRNGADFDITGMKELLEGLDYSVDVEENLTARDMESALRAFATRPEHKSSDSTFLVLMSHGILEGICGTVHDEKKPDVLLYDTIFQIFNNRNCLSLKDKPKVIIVQAARGANRGELWVRDSPASLEVASSQSSENLEEDAVYKTHVEKDFIAFCSSTPHNVSWRDSTMGSIFITQLITCFQKYSWCCHLEEVFRKVQQSFETPRAKAQMPTIERLSMTRYFYLFPGN
modifications: full-length
- Kd [3]: 5.3 ± 0.5 µM
- Kd [4]: 2.4 µM

B2: CARD: caspase activation and recruitment domain of Casp-4, residues 1-80, His6 tag at the N-terminus (protein)
chain: T1 sequence (P49662 1-80 M1C) with C1M
modifications: N-terminal His6 tag; Caspase-4 CARD polypeptide
- Kd [3]: 6.5 ± 0.8 µM
- Kd [4]: 2.1 µM

B3: ΔCARD-C258A-Casp-4: CARD truncated Casp-4 (81-377, C258A modification) (protein, UniProt P49662 81-377, looked up, fragment C258A)
chain: QISPNKKAHPNMEAGPPESGESTDALKLCPHEEFLRLCKERAEEIYPIKERNNRTRLALIICNTEFDHLPPRNGADFDITGMKELLEGLDYSVDVEENLTARDMESALRAFATRPEHKSSDSTFLVLMSHGILEGICGTVHDEKKPDVLLYDTIFQIFNNRNCLSLKDKPKVIIVQAARGANRGELWVRDSPASLEVASSQSSENLEEDAVYKTHVEKDFIAFCSSTPHNVSWRDSTMGSIFITQLITCFQKYSWCCHLEEVFRKVQQSFETPRAKAQMPTIERLSMTRYFYLFPGN
- binding to LPS ([3]; tryptophan fluorescence, FIG. 1B): not identified
- binding to LPS ([4]; FIG. 1C): not identified

B4: ALEXA FLOUR 488-CARD: ALEXA FLUOR 488-labeled His-Cys-CARD (M1C-CARD), tracer for FP assays (conjugate, UniProt P49662 1-80, looked up, fragment M1C)
chain: T1 sequence (P49662 1-80 M1C)
modifications: CARD Alexa Fluor 488 label; His tag
notes: ALEXA FLUOR 488-labeled His-Cys-CARD (M1C-CARD), tracer for FP assays
- Kd ([2]; 50 nM ALEXA FLOUR 488-CARD, LPS-Ra 0 μM to 12.8 μM, buffer C, 37° C., read-out: Kd^app): 2.2 ± 0.2 µM

Reference: patent US11926860B2, “Method of screening inhibitor of caspase activity by lipopolysaccharide” (KOREA INSTITUTE OF SCIENCE AND TECHNOLOGY, priority 2021, dated 2024)
